Consider 1 compound from BindingDB's records for patent US11858959 (Ardelyx, 2024).

The assay has as its target T1, 11-beta-hydroxysteroid dehydrogenase type 2 (Homo sapiens, UniProt P80365).
T1 sequence (P80365 whole entry): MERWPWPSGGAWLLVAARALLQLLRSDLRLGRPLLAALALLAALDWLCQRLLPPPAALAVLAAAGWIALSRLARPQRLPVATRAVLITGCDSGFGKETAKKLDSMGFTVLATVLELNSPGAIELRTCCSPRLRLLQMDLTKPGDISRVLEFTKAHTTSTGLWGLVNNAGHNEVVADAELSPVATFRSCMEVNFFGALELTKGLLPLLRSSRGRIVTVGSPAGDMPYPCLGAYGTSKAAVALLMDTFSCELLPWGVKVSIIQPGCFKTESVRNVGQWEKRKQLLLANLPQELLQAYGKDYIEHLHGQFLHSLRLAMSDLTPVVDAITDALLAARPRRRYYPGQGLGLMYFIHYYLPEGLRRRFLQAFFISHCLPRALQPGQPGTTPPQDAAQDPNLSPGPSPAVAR
Put plainly: HSD2 Activity. The protocol:
Human descending colon epithelial stem cells were cultured as 3D organoids in accordance with Sato et al Gastroenterology. 2011 November; 141(5): 1762-72. Organoids were dissociated using TrypLE Express (life technologies) and plated on 96-well transwells (corning) in supplemented basal media (SBM-advanced DMEM/F12 containing 10 mM HEPES, 1:100 Glutamax, 1:100 penicillin/streptomycin, 1:100N2, 1:50 B27, 1 mM N-acetylcysteine, 10 nM [Leu15]-gastrin I) containing 100 ng/mL Wnt3A (W), 50 ng/mL EGF (E), 100 ng/mL Noggin (N), 500 ng/mL RSpondinl (R), 500 nM A83-01 (S) and 2.5 uM thiazovivin (T). Cultures were differentiated using SBM containing ENRA and 30 nM aldosterone on day 3, and cultures were used for assay on day 6 or 7. Compounds were diluted in DMSO and serial dilutions prepared by titrating in DMSO. Compounds were then diluted into DMEM/F12. Transwell plates containing descending colon cultures were washed twice with DMEM/F12 and compound was added to the apical compartment. Cells were incubated with test compound for 30 minutes at 37 C., 5% CO2 to equilibrate across the cell membrane. […] Cortisol levels were measured using a cortisol HTRF assay kit as described by the manufacturer (Cisbio). Concentration-response curves were then plotted and IC50 (and pIC50) values were determined using least squares non-linear regression.

Structures are written as SMILES. pIC50: −log10 of the molar value.

Usually pIC50 stands for the IC50 on a negative log10 scale, so that one unit is a factor of ten. Low values mean a large IC50, high ones a small IC50.

For the compound `Cc1oc(=O)oc1COC(=O)[C@]1(C)[C@@H](OC(=O)CN(C)C)CC[C@@]2(C)[C@H]1CC[C@]1(C)[C@@H]2C(=O)C=C2[C@@H]3C[C@@](C)(C(=O)O)CC[C@]3(C)CC[C@]21C` [US11858959, Compound 290-2], the pIC50 was 6.60.
